Test results reported in patent US7211594B2, “Indazole compounds and compositions thereof as JNK inhibitors and for the treatment of diseases associated therewith” (Signal Pharmaceuticals, LLC, priority 2000, dated 2007).

Point of comparison: Fc1ccc(-c2n[nH]c3ccccc23)cc1 [Example 4, 3-(4-Fluorophenyl)-1H-indazole], melting point 126 °C. Against it:
- Nc1ccc2[nH]nc(-c3ccccc3)c2c1 [Example 8, 5-Amino-3-phenyl-1H-indazole] — lower, 104 °C
- COc1ccc(-c2n[nH]c3ccc([N+](=O)[O-])cc23)cc1 [Example 21, 3-(4-Methoxyphenyl)-5-nitro-1H-indazole] — higher, 153 °C
- O=[N+]([O-])c1cccc(-c2n[nH]c3ccc([N+](=O)[O-])cc23)c1 — higher, 249 to 251 °C
- FC(F)(F)c1ccc2[nH]nc(-c3ccccc3)c2c1 [Example 5, 3-Phenyl-5-trifluoromethyl-1H-indazole] — higher, 152 °C
- O=[N+]([O-])c1ccc2[nH]nc(-c3ccccc3)c2c1 [Example 7, 5-Nitro-3-phenyl-1H-indazole] — higher, 185 to 186 °C
- COc1ccc(-c2n[nH]c3ccc([N+](=O)[O-])cc23)cc1OC [Example 23, 3-(3,4-Dimethoxyphenyl)-5-nitro-1H-indazole] — higher, 172 to 173 °C
- Fc1ccc2[nH]nc(-c3ccccc3)c2c1 [Example 6, 5-Fluoro-3-phenyl-1H-indazole] — lower, 124 to 125 °C
- COc1ccccc1-c1n[nH]c2ccccc12 [Example 3, 3-(2-Methoxyphenyl)-1H-indazole] — lower, 99 °C

With COc1ccc(-c2n[nH]c3ccc(N)cc23)cc1.Cl [Example 34, 5-Amino-3-(4-methoxyphenyl)-1H-indazole Hydrochloride] the melting point was 240 °C (dec.).
In the case of COc1ccc(-c2n[nH]c3ccc(N)cc23)cc1OC.O=C(O)C(F)(F)F, the melting point is reported as 150 °C (dec.).
